According to patent publication US7169591B1, “Preparation of enantio-specific epoxides” (priority 1999, dated 2007):

What was measured:
wild type organisms = test: Alkene oxidation and epoxide detection (GC, PNBP), wild type organisms; assay type: cell-based; conditions: for epoxide detection during oxidation: wild type organisms
Protocol: (§1) To determine the range of alkenes that could be degraded by the toluene monooxygenase and the degradation kinetics of the toluene monooxygenases, 5-ml aliquots of the resuspended cultures were dispensed to 25-ml serum vials and crimp sealed with Teflon™ faced septa. Gaseous alkene substrates were added as pure compounds by using a gas-tight syringe, and other alkene substrates were added from stock solutions (20% in dimethylformamide). The amount of individual alkene substrates added were as follows: 1-butene, 2-butene, and 1,3-butadiene, 2.2 μM; epoxy butane, 1,3-butadiene monoxide, and epichlorohydrine, 8 μM; 1- and 2-pentene, 9 μM; hexene, 4 μM; octadiene, 4.5 μM; 2-chloropropene, 11 μM; and, 2,3-dichloropropene, 12 μM unless otherwise indicated. The serum vials were then placed horizontally on a rotary shaker operating at 100 rpm. During incubation the temperature was maintained between 20–22° C. for the Pseudomonads and at 37° C. for E. coli. The serum vials were periodically removed from the shaker and a 10–25 μl portion of the headspace gas was withdrawn through the septa and injected onto a gas chromatograph (GC) equipped with a 30 m Vocol column (Supelco Inc. Bellefonte, Pa.) maintained at 160° C., and a flame ionization detector. This allowed the monitoring of both the alkene compounds as well as the epoxide products. The same protocol was used to detect the formation of 1,2-butanediol and butadiene diepoxide, except that 1 μl of the culture media was injected onto the column rather than the headspace gas.
The only epoxides relevant to this study that were commercially available were 1,3-butadiene mono-, and diepoxide. These were used in GC analyses to determine retention times and to quantitate the conversion of 1,3-butadiene to the corresponding epoxides. To verify that the observed peaks were epoxides, a modification of the method of van Hylckama et al. (van Hylckama et al., Appl. Environ. Microbiol., 62:3304–3312 (1996)) was used, whereby epoxides were conjugated with PNBP to form intensely colored adducts of the epoxides. Serum vials were prepared as before, except that prior to sealing the vials, Durham tubes were placed inside the vials, with the opening of the Durham tube extending out of the liquid. The substrate was then added and the vials were incubated with moderate shaking at a 45° angle to prevent the culture liquid from entering the Durham tube. The transformation of the alkenes was monitored by GC analysis. […] The vials were then allowed to incubate for 8 hours before they were opened and the epoxide containing PNBP withdrawn. The total volume of PNBP solution was combined with an equal volume of acetone-triethylamine (50:50) and mixed rapidly. Epoxide/PNBP adducts were detected by spectra analysis (400–700 nm).

[1] = tested on: Burkholderia cepacia G4 (T2MO); test: Enantiomeric ratio of monoepoxides (chiral GC), strain G4; assay type: cell-based
Protocol: (§2) To determine the ratio of R and S isomers of the epoxides formed from the oxidation of the alkenes, samples were analyzed for the presence of the epoxides and alkenes by gas chromatography as described above. When the epoxide concentration neared its maximum, or when the 80–90% of the substrate was degraded, the enantiomeric ratio of epoxides produced was determined by injecting a sample of the headspace gas onto a GC equipped with a chiral separation column (RT-BDEXSE; Restek, Inc., Bellefonte, Pa.) and a flame ionization detector. The column was maintained at 50° C.

[2] = tested on: E. coli (pRS202) expressing T4MO; test: Alkene degradation assay, E. coli (pRS202) expressing T4MO; assay type: cell-based, Escherichia coli DH10B
Protocol: Escherichia coli DH10B containing the plasmid pRS202 (Pikus et al., Biochemistry, 35:9106–9119 (1996); Pikus et al., Biochemistry, 36:9283–9289 (1997)) was prepared in a similar manner except it was grown at 37° C. in LB media, and was resuspended to an OD550 of 4 in LB media with 0.3–1 mM IPTG to induce expression of T4MO.
as §1

[3] = tested on: Pseudomonas pickettii PKO1 (T3MO); test: Enantiomeric ratio of monoepoxides (chiral GC), strain PKO1; assay type: cell-based; conditions: KO1 (PKO1)
Protocol: as §2

[4] = tested on: Pseudomonas mendocina KR1; test: Alkene degradation assay, whole cells of Pseudomonas mendocina KR1 (T4MO); assay type: cell-based
Description: (§3) Pseudomonas mendocina KR1 (Yen et al., J. Bacteriol., 173:5315–5327 (1991)), the T4MO mutant of KR1 Pseudomonas mendocina ENVpmx1 (McClay et al., The 97th Annual Meeting of ASM, Abstract K36, page 348 (1997)), Pseudomonas pickettii PKO1 (Byrne et al., Gene, 154:65–70 (1995)), Burkholderia cepacia G4 (Shields et al., Appl. Environ. Microbiol., 55:1624–1629 (1989)), Burkholderia sp. strain ENVBF1 (McClay et al., Appl. Environ. Microbiol., 62:2716–2722 (1996)), and Pseudomonas sp. strain ENVPC5 (McClay et al., 1996, supra) were cultured overnight at 30° C. in shake flasks containing basal salts medium (BSM; 10) supplemented with 0.4% sodium glutamate. Toluene was included in the vapor phase when induction of the toluene oxygenases was desired. Prior to substrate degradation assays the cultures were harvested by centrifugation and resuspended in BSM to an optical density at 550 nm (OD550) of 2, unless otherwise indicated. A standard curve of optical density vs. protein concentration for each strain was used to calculate the amount of protein per ml of the resuspended cultures.
as §1

Burkholderia cepacia G4 = test: Alkene degradation assay, whole cells of Burkholderia cepacia G4 (T2MO); assay type: cell-based; conditions: for alkene degraded that was detected as the epoxide product: toluene induced G4, 4.4 μmoles 1,3-butadiene or 2.2 μmoles 2-butene
Description: as §3, §1

[5] = tested on: Pseudomonas sp. strain ENVPC5; test: Enantiomeric ratio of monoepoxides (chiral GC), strain ENVPC5; assay type: cell-based; conditions: PC5
Protocol: as §2

[6] = tested on: Pseudomonas mendocina KR1 (T4MO); test: Enantiomeric ratio of monoepoxides (chiral GC), strain KR1; assay type: cell-based
Protocol: as §2

[7] = tested on: Pseudomonas sp. strain ENVPC5; test: Alkene degradation assay, whole cells of Pseudomonas sp. strain ENVPC5 (T4MO); assay type: cell-based; conditions: for added substrate degraded: in 20 hours
Description: as §3, §1

[8] = tested on: Burkholderia sp. strain ENVBF1; test: Alkene degradation assay, whole cells of Burkholderia sp. strain ENVBF1 (T4MO); assay type: cell-based
Description: as §3, §1

[9] = tested on: Burkholderia sp. strain ENVBF1; test: Enantiomeric ratio of monoepoxides (chiral GC), strain ENVBF1; assay type: cell-based
Protocol: as §2

[10] = tested on: Pseudomonas mendocina ENVpmx1; test: Alkene degradation assay, T4MO deficient strain Pseudomonas mendocina ENVpmx1; assay type: cell-based
Description: as §3, §1

alkane hydroxylase = target: T1, alkane hydroxylase (Ectopseudomonas oleovorans, UniProt P12691); conditions: cited from earlier work
T1 sequence (P12691 1-401): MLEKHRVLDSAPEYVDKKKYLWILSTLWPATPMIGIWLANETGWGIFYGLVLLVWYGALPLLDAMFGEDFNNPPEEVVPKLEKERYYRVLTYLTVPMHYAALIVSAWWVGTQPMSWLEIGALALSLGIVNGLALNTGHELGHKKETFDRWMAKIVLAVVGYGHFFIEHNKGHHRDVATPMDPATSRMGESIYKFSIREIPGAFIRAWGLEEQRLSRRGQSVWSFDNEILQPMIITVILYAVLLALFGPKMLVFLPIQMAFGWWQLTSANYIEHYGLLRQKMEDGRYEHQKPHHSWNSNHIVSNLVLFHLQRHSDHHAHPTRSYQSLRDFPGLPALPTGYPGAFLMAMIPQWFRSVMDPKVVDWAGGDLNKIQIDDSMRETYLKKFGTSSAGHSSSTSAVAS

[11] = following 30 minutes incubation
[12] = ENVBF1, following 30 minutes incubation
[13] = rate determined after 60 minutes of incubation

Compound: C=CCCC [1-pentene]
- degradation (wild type organisms; all the wild type strains): efficiently degraded
- monoepoxide formed, R enantiomer [1]: 100%
- monoepoxide formed, S enantiomer [1]: 0%
- degradation by the clone of T4MO [2]: degraded
- monoepoxide formed, R enantiomer [3]: 64.6%
- monoepoxide formed, S enantiomer [3]: 35.4%
- Specific activity of toluene monooxygenase, substrate degraded [4, 11]: 0.21 μM substrate degraded/minute/mg protein
- Specific activity of toluene monooxygenase, substrate degraded (Burkholderia cepacia G4; G4, following 30 minutes incubation): 0.08 μM substrate degraded/minute/mg protein
- monoepoxide formed, R enantiomer [5]: 72.5%
- monoepoxide formed, S enantiomer [5]: 27.5%
- monoepoxide formed, R enantiomer [6]: 54.2%
- monoepoxide formed, S enantiomer [6]: 45.8%
- Specific activity of toluene monooxygenase, substrate degraded [7, 11]: 0.15 μM substrate degraded/minute/mg protein
- Specific activity of toluene monooxygenase, substrate degraded [8, 12]: 0.05 μM substrate degraded/minute/mg protein
- monoepoxide formed, R enantiomer [9]: 66.3%
- monoepoxide formed, S enantiomer [9]: 33.7%

Compound: pentene
- epoxide detection during oxidation [10]: no epoxides were detected

Compound: CC=CC [2-butene]
- time to degrade all the substrate [4]: 3.5 h
- added substrate degraded ([4]; in 20 hours): Greater than 95%
- alkene degraded that was detected as the epoxide product (Burkholderia cepacia G4): 43%
- Specific activity of toluene monooxygenase, substrate degraded [7, 11]: 0.17 μM substrate degraded/minute/mg protein
- added substrate degraded [7]: Greater than 95%
- Specific activity of toluene monooxygenase, substrate degraded [8, 12]: 0.12 μM substrate degraded/minute/mg protein

Compound: hexene
- epoxide detection during oxidation (wild type organisms): no epoxides were detected
- degradation by the clone of T4MO [2]: degraded
- degradation compared with the wild type strains [10]: at a greater rate than the wild type strains
- epoxide detection during oxidation [10]: no epoxides were detected

Compound: C=CC=C [1,3-butadiene]
- monoepoxide formed, R enantiomer [1]: 8.1%
- monoepoxide formed, S enantiomer [1]: 91.9%
- monoepoxide formed, R enantiomer [3]: 19.6%
- monoepoxide formed, S enantiomer [3]: 80.4%
- added substrate degraded ([4]; in 20 hours): 50%
- substrate degraded ([4]; in 20 hours): 1.1 µmol
- time until oxidized to a concentration below the limits of detection (Burkholderia cepacia G4; G4): ≤ 6 h
- alkene degraded that was detected as the epoxide product (Burkholderia cepacia G4): > 95%
- monoepoxide formed, R enantiomer [5]: 32.7%
- monoepoxide formed, S enantiomer [5]: 67.3%
- monoepoxide formed, R enantiomer [6]: 22.4%
- monoepoxide formed, S enantiomer [6]: 77.6%
- Specific activity of toluene monooxygenase, substrate degraded [7, 11]: 0.09 μM substrate degraded/minute/mg protein
- added substrate degraded [7]: 50%
- Specific activity of toluene monooxygenase, substrate degraded [8, 12]: 0.13 μM substrate degraded/minute/mg protein
- monoepoxide formed, R enantiomer [9]: 22%
- monoepoxide formed, S enantiomer [9]: 78%

Compound: C=CCCCCC=C [1,7-octadiene]
- enantiomeric purity of the (R) epoxide formed (alkane hydroxylase): 98%

Compound: C=CC1CO1 (stereo not drawn) [BME, 1,3-butadiene monoepoxide]
- epoxide degraded (Burkholderia cepacia G4; induced G4 in the presence of butadiene, approximately 5 hr): 0.7 µmol
- epoxide degraded (Burkholderia cepacia G4; induced G4 in the presence of toluene, approximately 5 hr): 0.5 µmol
- epoxide degraded (Burkholderia cepacia G4; toluene-induced G4, pure BME, first hour): 8 µmol
- epoxide oxidized (Burkholderia cepacia G4; uninduced G4, first hour): less than 1 μmole
- epoxide oxidized ([8]; induced ENVBF1, 24 hours): 13.4 µmol
- epoxide degraded ([8]; uninduced ENVBF1, 24 hours): less than 1.3 μmoles

Compound: C=C(Cl)CCl [2,3-chloropropene, 2,3-dichloropropene]
- epoxide detection during oxidation (wild type organisms): no epoxides were detected
- amount oxidized, less than the amount of 2-chloropropene degraded by the same strain [4]: 95.2%
- Specific activity of toluene monooxygenase, substrate degraded [4, 13]: 0.01 μM substrate degraded/minute/mg protein
- amount degraded compared with the T4MO-expressing organisms (Burkholderia cepacia G4; G4): twice as much
- Specific activity of toluene monooxygenase, substrate degraded (Burkholderia cepacia G4; G4, rate determined after 60 minutes of incubation): 0.23 μM substrate degraded/minute/mg protein
- amount oxidized, less than the amount of 2-chloropropene degraded by the same strain [7]: 66.0%
- Specific activity of toluene monooxygenase, substrate degraded [7, 13]: 0.12 μM substrate degraded/minute/mg protein
- amount oxidized, less than the amount of 2-chloropropene degraded by the same strain ([8]; ENVBF1): 75.6%
- Specific activity of toluene monooxygenase, substrate degraded ([8]; ENVBF1, rate determined after 60 minutes of incubation): 0.08 μM substrate degraded/minute/mg protein

Compound: C=CCCCCC1CO1 (stereo not drawn) [7,8-epoxy-1-octene]
- enantiomeric purity of the (R) epoxide formed (alkane hydroxylase): 83%

Compound: C=C(C)Cl [2-chloropropene]
- epoxide detection during oxidation (wild type organisms): no epoxides were detected
- substrate degraded ([4]; first 3 hours of incubation): 2.1 µmol
- Specific activity of toluene monooxygenase, substrate degraded [4, 11]: 0.07 μM substrate degraded/minute/mg protein
- additional substrate degraded ([4]; following 17 hours): 0.84 µmol
- substrate degraded ([7]; first 3 hours of incubation): 4 µmol
- Specific activity of toluene monooxygenase, substrate degraded [7, 11]: 0.18 μM substrate degraded/minute/mg protein
- additional substrate degraded ([7]; following 17 hours): 1.0 µmol
- substrate degraded ([8]; ENVBF1, first 3 hours of incubation): 2.3 µmol
- Specific activity of toluene monooxygenase, substrate degraded [8, 12]: 0.16 μM substrate degraded/minute/mg protein
- substrate degraded ([8]; ENVBF1, following 17 hours): 6.3 µmol

Compound: octadiene
- epoxide detection during oxidation (wild type organisms): no epoxides were detected
- degradation by the clone of T4MO [2]: did not oxidize
- degradation compared with the wild type strains [10]: at a greater rate than the wild type strains
- epoxide detection during oxidation [10]: no epoxides were detected
